Holding throughout (assay type): binding
One test concerns the target T1, TNKS ARC1 (178–336) (Homo sapiens, UniProt O95271).
T1 construct: TNKS ARC1 (178–336); His6-GST; made in house; host or cells: E. coli
In words: WaterLOGSY NMR assay. The protocol:
(§1) Fragments were dispensed in duplicate into a 384-well plate (250 nL, 100 mM stock in DMSO). Wells were backfilled with DMSO (2.25 μL). Tankyrase ARC protein (47.5 μL in 25 mM HEPES-NaOH pH7.5, 100 mM NaCl, 2 mM TCEP, 10% D2O; 20 μM final protein concentration in the assay) was added to the samples containing protein; buffer only (47.5 μL) was added to the compound-only samples. Solutions were transferred to 1.7 mm NMR tubes using a Gilson liquid handling system. ^1H NMR spectra were recorded, with the DMSO signal dampened. The bulk water signal at 4.7 ppm was selectively inverted. Data were processed using Bruker Topspin 3.14[66].

The target in a further test is T2, TNKS ARC4 (646–807) (Homo sapiens, UniProt O95271).
T2 construct: TNKS ARC4 (646–807); His6-GST; made in house; host or cells: E. coli
T2 sequence (O95271 646-807): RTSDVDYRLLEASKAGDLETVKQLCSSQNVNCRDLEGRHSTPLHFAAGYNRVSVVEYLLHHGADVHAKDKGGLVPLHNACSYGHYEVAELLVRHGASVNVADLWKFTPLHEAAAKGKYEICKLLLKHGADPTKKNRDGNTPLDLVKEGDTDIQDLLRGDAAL
The experiment in a line: WaterLOGSY NMR assay. The protocol:
as §1

Another test addresses T3, TNKS2 ARC2–3 (173–487) (Homo sapiens, UniProt Q9H2K2).
T3 construct: TNKS2 ARC2–3 (173–487); His6-GST; made in house; host or cells: E. coli
The experiment in a line: WaterLOGSY NMR assay. The protocol:
as §1

A further test concerns the target T4, TNKS ARC2–3 (331–645) (Homo sapiens, UniProt O95271).
T4 construct: TNKS ARC2–3 (331–645); His6-GST; made in house; host or cells: E. coli
In words: WaterLOGSY NMR assay. The protocol: as §1

A further test concerns the target T5, TNKS2 ARC1 (20–178) (Homo sapiens, UniProt Q9H2K2).
T5 construct: TNKS2 ARC1 (20–178); His6-GST; made in house; host or cells: E. coli
The experiment in a line: WaterLOGSY NMR assay. The protocol: as §1

The target in another test is T6, TNKS ARC5 (799–958) (Homo sapiens, UniProt O95271).
T6 construct: TNKS ARC5 (799–958); His6-GST; made in house; host or cells: E. coli
T6 sequence (O95271 799-958): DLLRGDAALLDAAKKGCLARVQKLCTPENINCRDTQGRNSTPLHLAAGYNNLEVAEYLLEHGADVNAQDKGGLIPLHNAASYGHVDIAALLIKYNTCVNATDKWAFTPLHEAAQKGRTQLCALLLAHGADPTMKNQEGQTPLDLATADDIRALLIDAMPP
In words: WaterLOGSY NMR assay. The protocol:
as §1

A further test concerns the target T7, TNKS2 ARC4 (Homo sapiens, UniProt Q9H2K2).
T7 construct: The cell was filled with TNKS2 ARC4 (488–649); His6-GST; made in house; host or cells: E. coli
T7 sequence (Q9H2K2 488-649): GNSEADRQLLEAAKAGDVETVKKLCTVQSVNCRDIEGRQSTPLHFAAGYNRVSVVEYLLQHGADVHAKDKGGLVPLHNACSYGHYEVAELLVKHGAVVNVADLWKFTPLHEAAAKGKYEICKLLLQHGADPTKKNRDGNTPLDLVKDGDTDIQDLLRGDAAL
The experiment in a line: Fluorescence polarisation (FP) competition assay with Cy5-labelled TBM peptide probe. The following applies: 5 nM Cy5-RSPPDGQS probe, 5 µM TNKS2 ARC4. The source says:
Given the anticipated impairment of cell permeability by the N-terminal TBM arginine, we investigated whether the guanidine group could be substituted. To prioritise synthesis efforts, we followed an in-silico docking approach, exploring the importance of the positive charge and hydrogen bonding interactions, linker lengths/flexibility and side chain geometry (see Supplementary Materials and Methods for details). From commercially available side chain alternatives, we identified five potential candidates for R replacements: 1H-imidazole-5-pentanoic acid, 1H-imidazole-1-pentanoic acid, 7-aminoheptanoic acid, D-arginine and L-citrulline (Supplementary Fig. 1). We next synthesised 3BP2 TBM octapeptides, incorporating the five arginine substituents at position 1, followed by fluorescence polarisation (FP) assays to assess competition of the peptides with a Cy5-labelled TBM peptide probe (Supplementary Fig. 1). We used a 16-mer TBM peptide (LPHLQRSPPDGQSFRSW, W introduced to measure A280) derived from the model substrate 3BP2, a signalling adapter protein[4], as a positive control for a competitor, and a corresponding non-binding TBM peptide bearing a glycine-to-arginine substitution at position 6[4] as a negative control. […]
Fluorescence polarisation assay
Unlabelled arginine substituent peptides were titrated up to 1 mM in the presence of 5 nM of a labelled peptide probe (Cy5-RSPPDGQS, JPT Peptide Technologies) and 5 µM TNKS2 ARC4. 3BP2 16-mer peptide was used as a positive control, and the same peptide with the glycine at position 6 mutated to arginine (G6R) was used as a negative control. Plus F ProxiPlates (PerkinElmer) were used with a 2103 Envision Multilabel plate reader (PerkinElmer), fitted with 620 nm (excitation) and 688 nm (emission) filters. Filter bandwidths were 10 nm. A Nanodrop 2000 was used for measuring protein and probe concentrations by UV absorption. TNKS2 ARC4 protein was thawed from -80 ° C, and centrifuged at 13,000 […]
Two independent experiments were performed in technical duplicate. A 2´ stock solution containing TNKS2 ARC4 protein (10 µM) and fluorescently tagged probe (10 nM) in assay buffer (25 mM HEPES-NaOH pH 7.5, 100 mM NaCl, 1 mM TCEP, 0.01% CHAPS) was prepared. A 2-fold dilution series of untagged peptide in assay buffer was made (0 – 2 mM).
Protein and peptide stock solutions were mixed 1:1. Blank samples contained assay buffer only. The plate was sealed, centrifuged for 1 min at 1000 ´ g, and then incubated in the dark for 30 min before reading. Readings were taken with 50 flashes per well, and measured in millipolarisation (mP) units. Data were exported to Microsoft Excel, and analysed in GraphPad Prism 6.0. The means of technical duplicate values were calculated for both experiments, and FP values were plotted against unlabelled peptide concentration. Curves were normalised using the overall mean maximum and minimum FP values of the control 3BP2 TBM peptide. Curves were fitted using a non-linear regression, log(inhibitor) vs. response – variable slope (four parameters) model.
Multiple sequence alignments and amino acid identity mapping
Sequences of tankyrase ARCs were aligned using ClustalX (version 2.0) 4. […]
Supplementary Figure 1. Binding of TBM peptides containing arginine substituents to TNKS2 ARC4, measured in a fluorescence polarisation (FP) competition assay. Data points are means of technical duplicates from two independent experiments. […]

By IC50 is commonly meant the concentration that gives 50% inhibition.

T4 sequence (O95271 331-645): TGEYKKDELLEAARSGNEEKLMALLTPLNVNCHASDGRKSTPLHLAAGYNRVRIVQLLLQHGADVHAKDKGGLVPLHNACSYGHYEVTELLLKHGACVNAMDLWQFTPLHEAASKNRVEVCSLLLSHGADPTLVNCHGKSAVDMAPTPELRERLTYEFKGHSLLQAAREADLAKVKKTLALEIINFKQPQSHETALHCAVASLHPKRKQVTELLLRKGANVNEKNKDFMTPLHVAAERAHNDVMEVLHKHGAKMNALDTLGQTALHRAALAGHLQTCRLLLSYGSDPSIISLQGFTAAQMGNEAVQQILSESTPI
T5 sequence (Q9H2K2 20-178): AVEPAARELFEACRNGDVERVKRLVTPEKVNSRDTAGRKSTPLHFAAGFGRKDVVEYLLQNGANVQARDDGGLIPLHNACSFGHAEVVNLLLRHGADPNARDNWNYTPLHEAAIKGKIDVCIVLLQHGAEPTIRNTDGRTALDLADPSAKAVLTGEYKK
T3 sequence (Q9H2K2 173-487): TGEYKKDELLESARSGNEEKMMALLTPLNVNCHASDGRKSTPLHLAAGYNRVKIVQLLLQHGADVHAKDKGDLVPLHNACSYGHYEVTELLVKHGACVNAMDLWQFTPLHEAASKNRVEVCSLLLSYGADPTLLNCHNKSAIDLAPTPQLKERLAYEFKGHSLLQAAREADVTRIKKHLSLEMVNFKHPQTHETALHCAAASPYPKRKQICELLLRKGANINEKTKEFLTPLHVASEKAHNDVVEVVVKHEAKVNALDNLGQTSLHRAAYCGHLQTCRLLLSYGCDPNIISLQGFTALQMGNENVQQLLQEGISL
T1 sequence (O95271 178-336): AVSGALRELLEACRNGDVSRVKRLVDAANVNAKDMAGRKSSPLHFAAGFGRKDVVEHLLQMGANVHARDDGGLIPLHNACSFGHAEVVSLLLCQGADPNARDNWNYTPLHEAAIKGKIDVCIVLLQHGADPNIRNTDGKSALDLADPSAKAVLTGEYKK

As for `O=C(NCc1ccco1)c1ccc2nccnc2c1` [compound 9], the waterLOGSY entry was “negative NOE signal” at TNKS ARC1 (178–336); “negative NOE signal” on TNKS ARC4 (646–807); “negative NOE signal” on TNKS2 ARC2–3 (173–487); “negative NOE signal” on TNKS ARC2–3 (331–645); “no NOE” on TNKS2 ARC1 (20–178); “negative NOE signal” at TNKS ARC5 (799–958).
As for “LPHLQRSPPDGQSFRSW [3BP2 16-mer peptide, 16-mer TBM peptide derived from 3BP2, W added for A280, N-terminus acetylated, C-terminus amide-capped; positive control, reference compound]”, the IC50 with TNKS2 ARC4 was found to be 22 µM. That is a double-digit micromolar value.

(Values after publication PMC6911004, “Fragment-based screening identifies molecules targeting the substrate-binding ankyrin repeat domains of tankyrase” (Scientific Reports, 2019).)
